# Laboratory results reported in publication PMC11674305, “Inhibition of Neural Crest Cell Migration by Strobilurin Fungicides and Other Mitochondrial Toxicants” (Cells, 2024).
# Tests used:
# Type in all cases: cell-based, human
# [1] = test system: neural crest cells (NCC); experiment: Transwell migration assay (FBS chemoattractant, 6 h); details: glucose or galactose medium
# Description: Cells were seeded at a density of 50,000 cells/well (150,000 cells/cm^2) into the upper chamber (insert) of the 96-well transwell plates (pore size 8 μm, polycarbonate membrane, Corning, Glendale, AZ, USA). The cells were stimulated to migrate through the membrane by medium supplemented with 5% of the chemoattractant fetal bovine serum (FBS) (PAA Laboratories, Pasching, Austria) in the lower chamber (reservoir). For testing of migration inhibition upon compound treatment, compounds were used at a concentration of BMC10 (V) of prior cMINC testing. Three technical replicates per condition were used. As a control for “unstimulated” migration, medium without any chemoattractant was tested. As an endpoint specific control for “inhibited” migration, CytoD with a concentration of 200 nM was used. After 6 h incubation time, the medium was aspirated, and reservoirs were washed with DPBS. Afterwards, reservoirs were filled with EDTA dissociation solution (DPBS supplemented with 0.1% 0.5 M EDTA UltraPure pH 8.0 (Thermo Fisher Scientific, Waltham, MA, USA), and 0.18% NaCl) containing 0.25 μL/mL calcein-AM and incubated for 30 min at 37 °C. The plates were then centrifuged at 300× g for 5 min (1200 rpm, Heraeus Multifuge 1 S-R, ThermoScientific) to remove migrated cells from the membrane. The tray with 96 wells of permeable inserts was removed, and the receiver plate was measured in the spectrophotometer (TECAN, Männedorf, Switzerland) with an emission wavelength of 520 nm. After subtraction of the blank values, the number of migrated cells was normalized to that of cells stimulated with FBS.
# To perform the experiments under mitochondria-dependent conditions, the cells were handled exactly in the same way, but the medium was adapted. The N2-S medium was adjusted, so that no glucose was present but galactose. The medium consisted of SILAC^TM Advanced DMEM/-F12 FLEX (Gibco/Fisher Scientific, Hampton, NH, USA), 15 μg/mL insulin, 400 μM GlutaMAX, 0.7 mM L-Arginine, 0.5 mM L-Lysine, 21.5 µM Phenol Red, 20 nM progesterone, 100 μM putrescine and 30 nM selenium, 92.5 μg/mL apotransferrin, 4.7 mg/mL galactose (18 mM). The cytokines 20 ng/mL EGF and 20 ng/mL FGF2 were always freshly added to each run.
# [2] = test system: complex I (cI); experiment: Electron transport chain complex activity in permeabilized NCC (Seahorse); details: 60 μM, due to block of cIII
# Text: (§1) Magel et al. (2024): Inhibition of neural crest cells migration by strobilurin fungicides
# (§2) Figure S9. Inhibition of electron transport chain complexes by picoxystrobin in neural crest […]
# (§3) NCC were exposed to the BMC10(V) of the cMINC assay (60 μ M). The grey area indicates th e non-significant range of the assay (≤ 25% change). The effect on complex IV (cIV) was non-significant (green bar). The purple bar indicates complex III (cIII) inhibition. Yellow bars […]
# (§4) that for these assays, the electrons have to pass cIII to reach cIV (oxygen consumption), i.e. electrons from cI (or cII) cannot be used for the reduction of oxygen, as they need to flow through cIII (which is blocked). The pattern of inhibition is indicative of cIII as illustrated earlier (Delp et al., 2019; van der Stel et al., 2020).
# (§5) To investigate the inhibition pattern of picoxystrobin, NCC were permeabilized and complex-specific substrates and inhibitors were sequentially injected as described earlier (Delp et al., 2019). In detail, cells were permeabilized with MAS buffer (220 mM mannitol, 1 mM ADP, 70 mM sucrose, 10 mM KH2PO4, 5 mM MgCl2, 2 mM HEPES, 1 mM EGTA, 4 mg/ml fatty acid-free BSA, pH = 7.2) supplemented with 25 μ g/mL digitonin. Seahorse measurements were started directly afterwards, and basal OCRs were assessed for internal normalization. Then picoxystrobin was injected and cI activity was assessed. For this, cII was inhibited (5 mM malonat) and substrates for cI (2 mM […], 2.5 mM malic acid, 5 mM pyruvic acid) […]
# (§6) were added. […] Next, cI was […]
# (§7) inhibited (0.5 μ M rotenone) and substrates of cIII (250 μM duroquinol ) were added. At this step, cIII inhibition data for cIII were obtained. In the case of a cI inhibition (e.g. by rotenone), […]
# (§8) To assess cII activity, cI was inhibited and the substrate of cII (10 mM succinic acid) was added.
# (§9) Lastly, to assess cIV activity, cII was inhibited and the substrates of cIV (125 μ M TMPD, 2 mM ascorbic acid) were added. Data were compared to the solvent control. Details and assay validation have been provided earlier (Delp et al., 2019; van der Stel et al., 2020). […]
# [3] = test system: complex II (cII); experiment: as above; details: 60 μM, due to block of cIII
# Text: as §1, §2, §3, §4, §5, §6, §7, §8, §9
# [4] = test system: complex IV (cIV); experiment: as above; details: 60 μM (BMC10(V) of cMINC)
# Text: as §1, §2, §3, §4, §5, §6, §7, §8, §9
structure (smiles),measurement,setting,value
"CO/C=C(/C(=O)OC)c1ccccc1COc1cccc(C(F)(F)F)n1 [Picoxystrobin, picoxystrobin]",concentration at which transwell migration was inhibited,[1],≥ 5 µM
same,effect on complex I (cI),[2],apparent inhibition
same,effect on complex II (cII),[3],apparent inhibition
same,effect on complex IV (cIV),[4],non-
